Laboratory results: article PMC6403271, “Characterization, mechanism of action and optimization of activity of a novel peptide-peptoid hybrid against bacterial pathogens involved in canine skin infections” (Scientific Reports, 2019)
Entries after “also recorded” stand apart in the source; their conditions may differ. Square brackets hold non-standard residues; d marks the D form. Peptide text beside a SMILES is read from it. N(1-naphthylmethyl)Gly = O=C(O)CNCc1cccc2ccccc12; N(4-MeBn)Gly = Cc1ccc(CNCC(=O)O)cc1; NBuGly = CCCCNCC(=O)O

Key:
[1] = topical delivery from cream formulation; cited from earlier work
MRSP E104 [2] = experiment: Time-kill kinetics, MRSP E104; format: cell-based, Staphylococcus pseudintermedius
Method: Time kill assays were performed in triplicate, meaning that every value is the average of three different samplings. Time–kill kinetic assays were performed using P. aeruginosa (26314), MRSP E104 and/or MRSP C22963 to determine the cell killing activity of B1 and two of its most promising analogues (compounds 23 and 26) based on prior antimicrobial susceptibility testing. The method reported by Blondeau et al.[63] was followed with minor modifications. […] After 0, 15, 30, 60, 120, 180 and 300 min of growth, 100 μL aliquots were collected and 10-fold serially diluted. Twenty μL of cell suspension from each dilution were spotted in triplicate on blood agar plates followed by 16–18 h incubation at 37 °C and determination of colony forming units (CFU).

P. aeruginosa isolates = experiment: MIC, panel of 50 canine P. aeruginosa isolates; format: cell-based, Pseudomonas aeruginosa
Method: Activity of B1 was tested on 50P. aeruginosa isolates and 57S. pseudintermedius isolates (including 7 MRSP) that had been isolated in the diagnostic laboratory Sund Vet Diagnostik (University of Copenhagen) from various infections in dogs between 2009 and 2011. Representative MRSP (C22963), MSSA, and P. aeruginosa (26314) were used for testing the first set of B1 analogues.
MIC determination was performed by broth microdilution according to the Clinical and Laboratory Standard Institute (CLSI, M31-A3, 2008)[62]. In brief, each bacterial strain was diluted to concentration of 5 × 10^5 CFU/mL in Mueller Hinton broth II (MHB II) media (Oxoid) and added to a two-fold serial dilution of peptides and peptide-peptoid hybrids concentrations ranging from 1 to 64 µg/ml in 96-well plates (Nunc Internationals, Rochester, NY). The MICs were determined as a lowest concentration showing no visible growth after incubation for 18 hours at 37 °C. Experiments were performed in triplicates on two different days.

[3] = tested on: membrane potential of MRSP E104; experiment: DiSC3(5) fluorescence-based membrane potential study; format: cell-based, Staphylococcus pseudintermedius; conditions: MRSP E104, sub-inhibitory concentration 1.5 µg/mL
Method: Freshly sub-cultured E104 cells were labelled with 1 µM 3,3-Dipropylthiadicarbocyanine iodide [DiSC3(5)] (Sigma) in MHB II. The fluorescence spectra of labelled cells were plotted in the LS50B luminescence spectrometer (PerkinElmer) at excitation/emission wavelengths 546 nm/573 nm using time drive application of FLWINLAB software. After reading an initial stable emission spectra of DiSC3(5), labelled cells were treated with B1 or nisin or protonophore CCCP at 1, 1.5 and 1.25 µg/ml, respectively and the change of fluorescence over time was recorded. The increment of DiSC3(5) fluorescence upon addition of antimicrobials or CCCP (FUafter-treatment – FUbefore-treatment) was plotted. This experiment was performed twice and each time with two technical replicates.

[4] = tested on: cell wall synthesis in MRSP E104; experiment: Macromolecule biosynthesis rate, cell wall (3H-glucosamine); format: cell-based, Staphylococcus pseudintermedius; conditions: MRSP E104, 1.5 µg/mL, 20 min
Method: (§1) Macromolecule biosynthesis rate was measured in MRSP E104 following a protocol adapted from Ling et al.[65]. Briefly, E104 overnight culture was sub-cultured 1:100 in MHB II and grown up to OD 0.2 at 600 nm. Cells were pelleted down by centrifugation and resuspended in fresh medium followed by incubation for 20 min with B1 or nisin at 1.5 µg/ml and 1.25 µg/ml, respectively, and radiolabeled precursor: (50µCi) 3H-Thymidine (PerkinElmer) and (5µCi) 3H-glucosamine hydrochloride per ml for DNA and cell wall, respectively. A positive control without antimicrobial was maintained. After incubation, samples were precipitated with equal volume of cold 30% TCA (Sigma) on ice. Precipitates were filtered on a membrane filter and subsequently subjected to two washes of cold 15% TCA and two washes of cold water using vacuum manifold. Subsequently, filters were air dried overnight and then transferred to 10 ml scintillation vials. Finally, scintillation fluid (3 ml) was added to each vial and ^3H count was taken in Beckman Coulter LS6500 liquid scintillation counter for one minute. The radioactive counts of the control samples were considered to have 100% precursor incorporation and macromolecule synthesis. The percentage rates of the antimicrobial-exposed samples were calculated accordingly. Each experiment was performed with replicates and the average rates of incorporation were plotted.

MRSP E104 [5] = experiment: High-throughput growth curves (BioScreen); format: cell-based, Staphylococcus pseudintermedius; conditions: 3 µg/ml; decrease of OD over time
Method: The effects of B1 on the growth of a reference MRSP strain (ST71, E104) were evaluated using BioScreen (Oy Growth Curves Ab LTd, Finland). A well characterized antimicrobial peptide, Nisin, was used as a positive control. […] The OD600 of each micro-culture was measured and recorded every 15 min after a 5 second pause of shaking in automatic mode. The recorded ODs were plotted against time to prepare the growth curves. The assay was performed with technical and biological replicates, and one representative result was presented.

MRSP E104 [6] = experiment: Flow cytometry (TO/PI) of antimicrobial-exposed cells; format: cell-based, Staphylococcus pseudintermedius; conditions: MRSP E104, lysis concentration (1x MIC), 3 µg/ml, 1 h
Method: Freshly grown cultures (OD 0.2 at 600 nm) of MRSP E104 were exposed to 3 µg/ml of B1 or 2.5 µg/ml of nisin for 1 h and diluted 1:10 in flow cytometry analysis buffer (PBS supplemented with 1 mM EDTA, 0.01% Tween 20 and filtered by 0.22 µm membrane). Diluted cells were stained with 420 nM thiazole orange (TO, Sigma) and 48 µM propidium iodide (PI, Sigma) and analysed using BD ACCURI C6 flow cytometer (BD Biosciences). Unstained cells were used as negative control. Finally, the differentially labelled bacterial populations in antimicrobial-exposed cultures were plotted under FL3(red)/FL1(green) axis using the instrument’s software and categorised into four different conditions: P1 (unstained), P2 (dead cells), P3 (injured cells) and P4 (live cells).

[7] = tested on: DNA synthesis in MRSP E104; experiment: Macromolecule biosynthesis rate, DNA (3H-Thymidine); format: cell-based, Staphylococcus pseudintermedius; conditions: MRSP E104, 1.5 µg/mL, 20 min
Method: as §1

## CCCCN(CC(=O)N[C@@H](CCCCN)C(=O)N(CC(=O)N(CC(=O)N(CC(N)=O)Cc1cccc2ccccc12)Cc1ccc(C)cc1)Cc1cccc2ccccc12)C(=O)[C@H](CCCCN)NC(=O)[C@@H](N)CCCCN [B1, Lys-Lys-(NBu)Gly-Lys-(N1-Nal)Gly-(N4-MeBn)Gly-(N1-Nal)Gly] (H-KK[NBuGly]K[N(1-naphthylmethyl)Gly][N(4-MeBn)Gly][N(1-naphthylmethyl)Gly]-NH2)
[1]
  skin penetration after administration: no skin penetration
MRSP E104 [2]; 2 × MIC
  time to complete killing of MRSP E104: 2 h
MRSP E104 [2]; 4 × MIC
  time to complete killing of MRSP E104: 1 h
MRSP E104 [2]; 8 x MIC
  time to kill MRSP: less than 30 min
P. aeruginosa isolates
  MICs against a panel of 50 P. aeruginosa isolates: 8 to 16 µg/mL
[3]
  membrane potential, DiSC3(5) fluorescence emission: significant membrane depolarization
[4]
  reduction in cell wall synthesis: 20%
MRSP E104 [5]
  growth curve effect on MRSP E104: cell lysis
MRSP E104 [6]
  flow cytometry PI/TO staining: Cell death
[7]
  effect on DNA replication: without affecting DNA replication; also recorded: no effect on DNA replication
